Laboratory results taken from patent US8299114B2, “Bicyclic derivatives of azabicyclic carboxamides, preparation thereof and therapeutic use thereof” (priority 2008, dated 2012).

How the values were obtained:
[1] = target: T1, TRPV1 receptor (Rattus norvegicus, UniProt O35433); test: Inhibition of the current induced with capsaicin on rat DRGs (whole-cell patch-clamp); format: cell-based; settings: inhibition of control capsaicin response, newborn rat DRG neurones
T1 construct: DRG neurones naturally express the TRPV1 receptor; endogenous in cells; host or cells: primary culture of newborn rat dorsal root ganglion neurones
T1 sequence (O35433 whole entry): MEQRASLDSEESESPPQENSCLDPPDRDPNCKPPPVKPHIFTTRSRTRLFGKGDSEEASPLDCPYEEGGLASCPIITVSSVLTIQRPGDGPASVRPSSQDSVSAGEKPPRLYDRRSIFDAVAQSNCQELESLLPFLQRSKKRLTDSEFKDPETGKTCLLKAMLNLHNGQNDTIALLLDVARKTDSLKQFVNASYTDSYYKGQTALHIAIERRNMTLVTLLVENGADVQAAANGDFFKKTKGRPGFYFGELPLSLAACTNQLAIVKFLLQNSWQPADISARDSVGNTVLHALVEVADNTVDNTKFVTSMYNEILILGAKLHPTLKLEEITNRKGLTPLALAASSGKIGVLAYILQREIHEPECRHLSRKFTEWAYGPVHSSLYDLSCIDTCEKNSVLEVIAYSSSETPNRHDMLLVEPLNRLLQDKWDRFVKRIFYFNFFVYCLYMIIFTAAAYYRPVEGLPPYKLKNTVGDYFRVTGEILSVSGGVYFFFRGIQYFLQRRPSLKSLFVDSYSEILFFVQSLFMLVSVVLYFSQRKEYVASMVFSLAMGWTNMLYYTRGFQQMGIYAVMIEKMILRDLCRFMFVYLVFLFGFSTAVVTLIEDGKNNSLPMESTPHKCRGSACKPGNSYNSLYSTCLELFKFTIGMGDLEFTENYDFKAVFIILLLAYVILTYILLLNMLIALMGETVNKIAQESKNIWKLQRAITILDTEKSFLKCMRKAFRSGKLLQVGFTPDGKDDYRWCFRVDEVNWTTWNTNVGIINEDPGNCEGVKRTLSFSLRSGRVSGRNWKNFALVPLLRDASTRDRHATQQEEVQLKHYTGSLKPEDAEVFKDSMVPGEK
Experimental: Test of Inhibition of the Current Induced with Capsaicin on Rat DRGs
• Primary culture of rat dorsal root ganglion (DRG) cells:
DRG neurones naturally express the TRPV1 receptor.
The primary cultures of newborn rat DRGs are prepared using 1-day-old rats. Briefly, after dissection, the ganglions are trypsinized and the cells dissociated by mechanical trituration. The cells are resuspended in an Eagle basal culture medium containing 10% foetal calf serum, 25 mM KCl, 2 mM glutamine, 100 μg/ml gentamicin and 50 ng/ml of NGF, and then deposited on glass slides coated with laminin (0.25×10^6 cells per slide), which are then placed in Corning 12-well dishes. The cells are incubated at 37° C. in a humidified atmosphere containing 5% CO2 and 95% air. […]
The measuring chambers (volume 800 μl) containing the cell preparation are placed on the platform of an inverted microscope (Olympus IMT2) equipped with Hoffman optics (Modulation Contrast, New York) and observed at a magnification of 400×. […] The overall currents (membrane potential set at −60 mV) are recorded with an Axopatch 1D amplifier (Axon Instruments, Foster City, Calif.), connected to a PC running the Pclamp8 software (Axon Instrument). The current plots are recorded on paper and simultaneously digitized (sampling frequency 15 to 25 Hz) and acquired on the hard drive of the PC. […]

[2] = target: T2, TRPV1 receptors (Mus musculus, UniProt Q704Y3); test: Pain induced by intraplantar administration of capsaicin to mice; format: in vivo; settings: 10 mg/kg orally 120 minutes before intraplantar capsaicin, n=10, timed over 2 minutes
T2 construct: from tissue; host or cells: live mice, hind leg (in vivo)
T2 sequence (Q704Y3 whole entry): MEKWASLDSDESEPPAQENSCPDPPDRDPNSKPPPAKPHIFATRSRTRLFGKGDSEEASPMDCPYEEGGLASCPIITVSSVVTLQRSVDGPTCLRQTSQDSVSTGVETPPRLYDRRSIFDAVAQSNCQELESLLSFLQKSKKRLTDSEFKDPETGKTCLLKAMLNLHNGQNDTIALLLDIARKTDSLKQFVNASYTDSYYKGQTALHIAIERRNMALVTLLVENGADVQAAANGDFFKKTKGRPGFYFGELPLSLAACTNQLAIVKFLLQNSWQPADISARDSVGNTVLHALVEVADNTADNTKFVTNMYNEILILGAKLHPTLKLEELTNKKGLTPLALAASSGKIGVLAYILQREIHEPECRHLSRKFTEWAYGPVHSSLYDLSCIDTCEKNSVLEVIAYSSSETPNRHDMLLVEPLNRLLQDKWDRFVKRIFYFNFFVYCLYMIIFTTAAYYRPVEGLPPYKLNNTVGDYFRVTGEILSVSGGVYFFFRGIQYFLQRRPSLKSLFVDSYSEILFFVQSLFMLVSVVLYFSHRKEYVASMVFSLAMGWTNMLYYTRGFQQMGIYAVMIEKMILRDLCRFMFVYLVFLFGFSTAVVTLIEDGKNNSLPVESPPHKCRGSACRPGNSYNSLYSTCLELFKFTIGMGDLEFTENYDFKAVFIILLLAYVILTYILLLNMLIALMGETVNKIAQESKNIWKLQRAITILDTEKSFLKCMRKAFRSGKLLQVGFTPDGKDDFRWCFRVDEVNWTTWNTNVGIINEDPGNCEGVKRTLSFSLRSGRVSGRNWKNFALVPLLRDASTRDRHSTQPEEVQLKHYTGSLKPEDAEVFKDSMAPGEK
Experimental: Pain Induced by Intraplantar Administration of Capsaicin to Mice. The intraplantar injection of capsaicin to mice rapidly produces short-lived nociceptive behaviour, which is reflected by licking, biting and flexing of the administered leg. […] Methodology: (E)-Capsaicin is initially diluted to 3 mg/ml in DMSO, and then diluted again for its final use to 1.5 μg/20 μl in physiological saline. […] The capsaicin is injected into the hind legs of the animal, on the upper face. The test compounds are administered orally 120 minutes before the injection of capsaicin. Two hours after administration of the compounds, the mice are placed in a glass beaker. The nociceptive behaviour of the animals is then assessed immediately by the experimenter, and the duration of the capsaicin-induced behavioural manifestations is timed over a period of 2 minutes (licking and biting, total or partial flexure of the injected leg). For each compound, an inhibition corresponding to the mean of the capsaicin-induced nociceptive responses, in response to a dose of test product (expressed in mg/kg) administered orally to a sample of a given number (n) of mice, is determined.

SMILES	inhibition at 0.0001 µM ([1]; 0.1 nM compound) [%]	% inhibition of the capsaicin-induced nociceptive responses [2]	inhibition at 0.1 µM ([1]; 100 nM compound) [%]	melting point [°C]
O=C(Nc1cnc2sc(CO)nc2c1)c1cc2cc(F)ccc2n1Cc1cccc(F)c1 [Compound 4, N-(2-Hydroxymethylthiazolo[5,4-b]pyrid-6-yl)-5-fluoro-1-[(3-fluorophenyl)methyl]-1H-indole-2-carboxamide]	65.5	37% (±8%)	–	–
Cc1nc2cc(NC(=O)c3cc4cc(F)ccc4n3Cc3cccc(F)c3)cnc2[nH]1 [Compound 11, N-(2-Methyl-3H-imidazo[4,5-b]pyrid-6-yl)-5-fluoro-1-[(3-fluorophenyl)methyl]-1H-indole-2-carboxamide]	–	–	62	299 to 300
